{"source": "patent US6858774B2", "about": "“MDR-like ABC transporter gene from plants” (Wisconsin Alumni Research Foundation, priority 1998, dated 2005)", "key": {"[1]": {"system": "wild type Arabidopsis seedlings", "assay": "Treatment of wild type seedlings, morphological phenotype", "assay_type": "in vivo, Arabidopsis thaliana", "settings": "2,4-D or high concentrations of auxin", "description": "Expression of the plPAC gene of the present invention is inducible by auxin as described below in Example 4. Treatment of wild type Arabidopsis seedlings with 2,4-D or high concentrations of auxin result in plants with the same phenotype as that of ATPAC mutant plants. […] Under this model, tissues that express this pump would accumulate auxin as a result of the mutation and the altered auxin balance could be responsible for the altered growth patters typifying the ATPAC phenotype. Further support of this model is the similarity of auxin to indolylic substrates pumped by human MDR1, and the finding that ATPAC expression is increased by auxin."}, "ATPAC": {"biological_target": "T1, ATPAC (Arabidopsis thaliana, UniProt Q9LJX0, DUP906-907/P1064L)", "T1 construct": "The 3.76 kb cDNA clone encodes a polypeptide 1,254 amino acids in length; expressed in transfected cells; host or cells: yeast (wild type and a strain lacking seven ABC transporters)", "T1 sequence (Q9LJX0 other isoform, or with tags, fused parts or gaps DUP906-907/P1064L)": "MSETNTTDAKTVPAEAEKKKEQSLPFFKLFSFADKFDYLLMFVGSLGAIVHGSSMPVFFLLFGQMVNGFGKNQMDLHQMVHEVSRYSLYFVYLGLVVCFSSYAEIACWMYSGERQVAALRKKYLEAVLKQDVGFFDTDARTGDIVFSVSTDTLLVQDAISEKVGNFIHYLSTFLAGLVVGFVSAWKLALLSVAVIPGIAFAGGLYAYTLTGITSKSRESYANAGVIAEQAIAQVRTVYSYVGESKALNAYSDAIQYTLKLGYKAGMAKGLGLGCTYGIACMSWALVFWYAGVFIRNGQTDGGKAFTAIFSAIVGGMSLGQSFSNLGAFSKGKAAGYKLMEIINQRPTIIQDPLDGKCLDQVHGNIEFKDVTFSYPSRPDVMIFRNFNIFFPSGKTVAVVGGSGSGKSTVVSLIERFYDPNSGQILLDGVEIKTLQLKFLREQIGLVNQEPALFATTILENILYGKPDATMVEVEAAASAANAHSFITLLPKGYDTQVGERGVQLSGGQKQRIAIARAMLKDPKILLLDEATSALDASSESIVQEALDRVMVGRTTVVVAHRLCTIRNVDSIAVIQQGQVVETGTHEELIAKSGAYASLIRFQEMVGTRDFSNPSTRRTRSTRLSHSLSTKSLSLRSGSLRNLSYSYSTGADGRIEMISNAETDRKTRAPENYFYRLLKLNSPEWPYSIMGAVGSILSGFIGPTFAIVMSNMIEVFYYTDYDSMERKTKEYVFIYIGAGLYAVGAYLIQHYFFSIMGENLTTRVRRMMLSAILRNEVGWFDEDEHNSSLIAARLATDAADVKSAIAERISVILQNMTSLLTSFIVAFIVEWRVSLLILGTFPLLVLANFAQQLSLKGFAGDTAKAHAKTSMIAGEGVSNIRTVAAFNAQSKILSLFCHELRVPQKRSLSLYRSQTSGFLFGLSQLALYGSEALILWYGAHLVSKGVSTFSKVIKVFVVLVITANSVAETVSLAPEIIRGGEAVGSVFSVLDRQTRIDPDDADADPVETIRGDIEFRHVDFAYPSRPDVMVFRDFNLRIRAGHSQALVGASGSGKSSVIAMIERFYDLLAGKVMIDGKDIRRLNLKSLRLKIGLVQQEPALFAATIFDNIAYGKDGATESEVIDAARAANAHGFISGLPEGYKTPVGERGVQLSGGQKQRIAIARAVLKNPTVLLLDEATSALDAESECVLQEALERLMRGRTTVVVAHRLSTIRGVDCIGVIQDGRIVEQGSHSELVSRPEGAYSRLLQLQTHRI", "assay": "NPA binding to yeast expressing ATPAC", "description": "Expression in Yeast and Xenopus Oocytes. ATPAC cDNA was expressed in wild type yeast as well as in yeasts lacking seven ABC transporters (as described by Decottignies et al., (1998) J. Biol. Chem. 273:12612-22)in order to create a heterologous system for studying function of the transporter. The yeasts were exposed to toxic compounds that are known substrates for human MDR1. […] Further, there was no evidence of a drug-pumping role for ATPAC.\nATPAC Binds the Auxin Transport Inhibitor naphthylphthalamic acid (NPA). Yeast expressing ATPAC was assayed for NPA binding. […] Bound NPA was not displaced by benzoic acid, a related hydrophobic organic acid. Proteins that bind NPA and influence auxin transport are considered important regulators of hormone action and therefore, of plant development."}}}
{"smiles": "O=C(O)Cc1c[nH]c2ccccc12", "note": "[auxin]", "values": [{"measurement": "Phenotype of treated wild type seedlings", "setting": "[1]", "result": "strongly curved organs"}]}
{"smiles": "O=C(O)c1ccccc1C(=O)Nc1cccc2ccccc12", "note": "[NPA, naphthylphthalamic acid]", "values": [{"measurement": "NPA binding to ATPAC-expressing yeast", "setting": "ATPAC; ATPAC-expressing yeast", "result": "bound tightly and specifically"}, {"measurement": "NPA binding to control yeast", "setting": "ATPAC; control yeast", "result": "not to control yeast"}]}
{"smiles": "O=C(O)c1ccccc1", "note": "[benzoic acid]", "values": [{"measurement": "Displacement of bound NPA", "setting": "ATPAC; ATPAC-expressing yeast, bound NPA", "result": "not displaced"}]}
{"smiles": "O=C(O)COc1ccc(Cl)cc1Cl", "note": "[2,4-D]", "values": [{"measurement": "Phenotype of treated wild type seedlings", "setting": "[1]", "result": "strongly curved organs"}]}
